A melting point compilation (Tetko et al.; mined from patent text by program, amines drawn as free bases though some values may be those of a salt)

| melting point | Structure (SMILES) |
| --- | --- |
| 120 to 121 °C | O=C(NCCCSc1ccncc1)c1ccccc1 |
| 156 to 157 °C | CCCOc1cccnc1C(O)c1ccc(N)cc1 (stereo not drawn) |
| 64 to 65 °C | OCc1ccccc1CSc1ccccc1 |
| 210 °C | Cc1cccc(N(CCO)Cc2ccc3nc(N)n(Cc4nc(C)ccc4O)c3c2)c1 |
| 80 to 81 °C | Cc1sc(-c2ccccc2)nc1COc1ccc(CCCC2OCCO2)cc1 |
| 87 to 88 °C | Fc1ccc(F)c(C(Sc2ccc(Cl)cc2)c2ccc(CSc3ccc(Cl)cc3)cn2)c1 (stereo not drawn) |
| 142 to 143 °C | COc1cc2cc(CO)c(CO)c(-c3cccc(-n4c(=O)ccc5ccccc54)n3)c2cc1OC |
| 289 to 291 °C | O=C1CSC(c2ccc(-n3ccc(=O)cc3)cc2)=NN1 |
| 115 to 116 °C | C=CC(c1cn(-c2ccccc2)nc1OCc1ccc(OCc2nc(-c3ccco3)oc2C)c(OC)c1)n1cncn1 (stereo not drawn) |
| 214 °C | N#CC1CCCCC1n1nc(-c2c(-c3ccccc3)nn3ccccc23)ccc1=O (stereo not drawn) |
| 55 to 56 °C | COc1cc(C(C)=O)ccc1OC1CCCC1 |
| 167 to 169 °C | C=CCNC(=O)[C@H]1CN(c2ccc(N3CCOCC3)c(F)c2)C(=O)O1 |
| 109 to 112 °C | CC(=O)OC1c2ccccc2Oc2ccccc21 |
| 154 °C | O=C(C(c1ccc(Cl)cc1)c1c(Cl)cc(-n2ncc(=O)[nH]c2=O)cc1Cl)N1CCCC1 (stereo not drawn) |
| 192 to 195 °C | Nc1ncnc2c1c(-c1ccc(Oc3ccccc3)cc1)cn2[C@H]1CC[C@@H](N2CCCCC2)CC1 |
| 114 to 116 °C | COC(=O)c1cc(Cl)ccc1N(C(C)C)S(=O)(=O)c1ccc(C)cc1 |
| 118 °C | O=S(=O)(c1ccccc1)c1n[nH]c2ccccc12 |
| 222 to 225 °C | O=c1[nH]c(CCCN2CCCC2)cc2c(O)cccc12 |
| 150 to 151 °C | CCc1cc(C(=O)c2ccccc2Cl)c(-n2c(C)nnc2CNC(=O)/C=C/c2ccccc2)s1 |
| 155 to 156 °C | COc1ccc(CSc2nnc(-c3ccc4nccn4c3)o2)cc1 |

| melting point | Structure (SMILES) |
| --- | --- |
| 100 to 103 °C | CCCc1nc2c(N)nc3cc(CCc4cccnc4)ccc3c2n1NC(C)C |
| 143 to 144 °C | COC(=O)C(Oc1cc(OCc2ccsc2)cc(F)c1C#N)c1ccccc1Cl (racemic) |
| 215 to 216 °C | CCOc1nn(-c2c(Cl)cc(Cl)cc2Cl)c(N2C(=O)c3ccccc3C2=O)c1C(=O)c1ccccc1Cl |
| 100 to 102 °C | CCCCCCN1C(=O)c2cscc2Nc2ccccc21 |
| 147 to 149 °C | O=C(O)[C@@H]1CCCN1Cc1cc2cc3c(cc2c2cc(OCc4ccccc4)ccc12)OCO3 |
| 95 to 96 °C | N#CCC(=O)c1cccc(Oc2ccccc2)c1 |
| 159 to 161 °C | COc1c(Cc2ccccc2)cc(S(N)(=O)=O)c2ccccc12 |
| 95 to 98 °C | Cc1cc(C)cc(C(=O)N[C@H](Cc2ccccc2)C(=O)N[C@@H](Cc2c[nH]c3ccccc23)C(=O)O)c1 |
| 117 to 118 °C | COc1cc(CC(CO)NC(=O)c2ccccc2)cc(OC)c1 (stereo not drawn) |
| 96 °C | O=C(O)c1cccc(CNC(=O)C2Cc3ccccc3N2S(=O)(=O)c2ccc(-c3cccc(C(F)(F)F)c3)cc2)c1 (stereo not drawn) |
| 215 to 217 °C | O=C(Nc1ccc2[nH]c(=O)oc2c1)C(=O)N1CCC(Cc2cccc(F)c2)CC1 |
| 282 to 283 °C | COc1cccc(CN2CC(=O)Nc3ncc(-c4ccc(O)cc4)nc32)c1 |
| 132 to 134 °C | O=C(NCCO)/C(=C/c1ccc(OC2CC2)cc1)NC(=O)c1ccc(OCCC2CC2)cc1 |
| 150 °C | COc1n[nH]cc1-c1ccccc1 |
| 144 to 148 °C | O=C(O)CCCCc1cc2cc(Cl)ccc2n1S(=O)(=O)c1ccccc1 |
| 187 to 188 °C | COc1ccc(NC(=O)c2ccc(-c3ccc(C(=O)N4CCCC4)cc3C)cc2)cc1N1CCN(C)CC1 |
| 126 to 129 °C | COC(=O)N1CCC(C(C(N)=O)(c2ccc(F)cc2)c2ccc(F)cc2)CC1 |
| 110 to 112 °C | OCc1ccc(-c2nn(Cc3ccccc3)c3ccccc23)cc1 |
| 180 °C | COC(=O)c1cc(F)ccc1Nc1ccnc2cc(Cl)ccc12 |
| 203 to 205 °C | O=C(NCc1ccc(Cl)cc1)c1cn2c3c(cc(CN4CCOCC4)cc3c1=O)CN(Cc1ccccc1)C2 |

| melting point | Structure (SMILES) |
| --- | --- |
| 158 to 159 °C | Cc1nc(C(c2c(Cl)cccc2Cl)n2cncn2)nc(C)c1N (stereo not drawn) |
| 204 to 206 °C | Cc1[nH]cnc1CSCCNc1ncc(Cc2ccc(Cl)cc2)c(=O)[nH]1 |
| 152 to 154 °C | Cc1nc2c(s1)-c1nc(NCc3ccccc3)ncc1CC2 |
| 143 to 144 °C | COc1ccc(C#CCSc2ccc(OCC(=O)O)c(C)c2)cc1 |
| 70 to 77 °C | CCCn1nc(C2CC2)c(C(=O)OCC)c1Cc1ccc(-c2ccccc2S(N)(=O)=O)cc1 |
| 73 to 74 °C | CCC(O)(c1ccc(OCCN2CCOCC2)cc1)c1cccc(C(F)(F)F)c1 (stereo not drawn) |
| 188 °C | O=C(CC1CCOCC1)N[C@H]1CC[C@H](CCN2CCC(c3ccc(F)c4occc34)CC2)CC1 |
| 123 to 124 °C | Nc1c(CC(=O)O)cccc1Oc1ccc(Cl)cc1Cl |
| 260 to 263 °C | CCn1ncc2c(NCc3cccc(OC)c3)c3ccccc3nc21 |
| 149 to 150 °C | O=C1OC(COc2ccc(CO)cc2)CN1c1ccc(Cl)cc1 (stereo not drawn) |
| > 280 °C | O=P(O)(O)Cc1ccc(CS(=O)(=O)c2ccccc2)cc1 |
| 165 °C | CCN(Cc1ccccc1OCc1ccccc1)c1ccc(C(=O)O)cc1 |
| 212 to 213 °C | O=C(NC(Nc1c(Nc2cccnc2)c(=O)c1=O)C(F)(F)C(F)(F)F)c1cccc(Cl)c1 (stereo not drawn) |
| 150 to 153 °C | CCOC(=O)c1ccc2c(c1)CCC(Cc1cnc(N)s1)C2 (stereo not drawn) |
| 113 to 115 °C | O=C1c2cccc(Br)c2C(=O)N1CCCn1cncn1 |
| 236 to 239 °C | Cn1c(CNC(=O)Nc2cccc(C(=O)O)c2)c(-c2ccccc2)c2cc(Cl)ccc2c1=O |
| 116 to 119 °C | CC(C)(C)OC(=O)N[C@H](Cc1ccc(Cl)c(Cl)c1)C(=O)N1CCC[C@H]1C(=O)NC1CCc2n[nH]cc2C1 (stereo partly drawn) |
| 209 to 211 °C | COc1ccc(/C=C/C(=O)Nc2ccccc2C(=O)O)cn1 |
| 83 to 85 °C | COc1ccc(Nc2ccccc2C=C(Br)Br)cc1OC |

Further lines, the compound ahead of its results:

| Structure (SMILES) | melting point |
| --- | --- |
| C=CCc1c(O)c(C)cc2c1C(C)(C)CC1(CC(C)(C)c3cc(O)c(C)cc3O1)O2 (stereo not drawn) | 102 to 104 °C |
| CC(C)(C)[Si](C)(C)OC1CC(=O)c2cc(F)ccc21 (stereo not drawn) | 56 to 58 °C |
| Cn1nc(-c2cc(S)c(Cl)cc2F)c(Cl)c1C(F)(F)F | 56 to 58 °C |
| CC(C)C(=O)NC(c1ccc(C=NO)cc1)C(F)(F)F (stereo not drawn) | 169 to 171 °C |
| CC(=O)c1nc2cc(C)c(F)cc2s1 | 152 to 153 °C |
| CC(CCl)CCCC(C)C1CCC2C3=CC=C4C(C)(C)C(O[Si](C)(C)C(C)(C)C)CCC4(C)C3CCC21C (stereo not drawn) | 114 to 116 °C |
| COc1cc(C(C)=O)ccc1OCCCCBr | 52 to 54 °C |
| CCOC(=O)C1CC(O)c2c(C)c(O)c(C)c(C)c2O1 (stereo not drawn) | 138 to 144 °C |
| CN(C)C(=O)c1cc(=O)c2ccsc2s1 | 126 °C |
| O=C(O)c1ccc(NC(=O)c2sc3c([N+](=O)[O-])c(O)c(O)cc3c2Cl)cc1 | 298 to 300 °C |
| C=CCc1cc2c(cc1O)C(C)(C)C(CCO)O2 (stereo not drawn) | 55 to 58 °C |
| COc1cc(O)c2c(c1)OC(C(C)(C)C=O)CC2=O (stereo not drawn) | 93 to 94 °C |
| COc1cc(C)c(C(=O)c2c(C(F)(F)F)ccnc2OC)cc1OC | 125 to 127 °C |
| CCCC(CCC)n1c(CC)nc2c1C(=O)N(C)C(C)N2c1ccc(Cl)cc1Cl (stereo not drawn) | 144 to 146 °C |
| CCN1CCOc2nc(Cl)c(Cl)nc21 | 108 to 110 °C |
| CCCCCCCCCCCCCCCCCNC(=O)N(C)CC(O)C(O)C(O)C(O)CO (stereo not drawn) | 94 to 96 °C |
| OCc1ccc(Br)nc1 | 49 to 51 °C |
| ICc1nc(-c2ccc3c(c2)OCO3)c2cc3c(cc2n1)OCO3 | 155 to 160 °C |
| CCC(=O)c1cc(C(=O)OC)c(N)cc1C(F)(F)F | 141 to 144 °C |
| Cc1ccc2[nH]c3c(c2c1)CC(C)CC3 (stereo not drawn) | 112 °C |
| CC(=O)Nc1ccc(OC/C=C(\C)C=O)cc1 | 127 to 130 °C |
| C=CCc1c(N2C(=O)C3=C(CCCC3)C2=O)ccc(C)c1O | 141 to 143 °C |

| Structure (SMILES) | melting point |
| --- | --- |
| COC(=O)CNS(=O)(=O)c1c(C(=O)OC)sc2ccccc12 | 148 to 150 °C |
| CN(C)C(C)(CO)c1cccs1 (stereo not drawn) | 68 to 70 °C |
| CCCCCCCCCNC(=O)CCC(=O)O | 114 to 116 °C |
| Nc1c(Cl)cc(C(F)(F)F)c(Cl)c1Cl | 37 to 39 °C |
| Cc1cc(F)ccc1C(=O)CCCN1CCC2(CC1)C(=O)NCN2c1ccccc1 | 180 to 182 °C |
| C=C(C(=O)OCC)N1C(C)(C)CC(OC(=O)C=CC(=O)OC2CC(C)(C)N(C(=C)C(=O)OCC)C(C)(C)C2)CC1(C)C | 185 to 186 °C |
| N#Cc1c(Br)[nH]c(Br)c1C(F)(F)F | 198 to 200 °C |
| CCCC(=O)c1cnc2c(OC)nccc2c1OS(C)(=O)=O | 184 to 185 °C |
| C=C1CCC2C3Cc4ccc(O)cc4C2(CCN3CC2CC2)C1 (stereo not drawn) | 220 to 223 °C |
| CC(C)Oc1ccnc2[nH]ccc12 | 182 to 184 °C |
| CCCCN(CCCC)c1cc(OC)c(C=Cc2ccc(C=O)s2)c(OC)c1 | 105 to 106 °C |
| CC/C=C/Cn1c(Sc2cc(C)cc(C)c2)c(CC)c(=O)[nH]c1=O | 129 to 130 °C |
| CN(C)C=Cc1cc(Cl)c([N+](=O)[O-])cc1Cl | 173 to 175 °C |
| O=C(O)c1cc(Cl)cc2c1OCCO2 | 180 °C |
| O=[N+]([O-])c1cccc2c(Cl)c(Br)cnc12 | 135 to 136 °C |
| N#Cc1ccc(C(F)(F)F)cc1N=NNc1cc(C(F)(F)F)ccc1C#N | 183 to 184 °C |
| CC(C)C[C@H](NC(=O)O[C@H]1CCOC1)C(=O)O | 94.9 to 96 °C |
| NCC(=O)N[C@H]1CC[C@H](O)CC1 | 110 to 114 °C |
| COc1cccc2c1C(=O)NS2(=O)=O | 224 °C |
| CC(=O)NCCCCCC1CCSS1 (stereo not drawn) | 28 to 33 °C |
| COC(=O)c1cc(Cl)ccc1NC(=O)N(C)C | 114 °C |
| C=CCN1CCN(c2cc3c(cc2F)c(=O)c(C(=O)O)cn3CC)CC1 | 236 °C |
